The text below walks through data of US20260263606A1 (priority 2022, published 2026).

For data set [1], the target named is T1, METTL3-METTL14 (Homo sapiens, UniProt Q86U44). Particulars: for LLE (lipophilic ligand efficiency, pIC50-logP): calculated with DataWarrior; for LE (ligand efficiency): from TR-FRET IC50.
Target sequence in this assay (Q9HCE5 whole entry): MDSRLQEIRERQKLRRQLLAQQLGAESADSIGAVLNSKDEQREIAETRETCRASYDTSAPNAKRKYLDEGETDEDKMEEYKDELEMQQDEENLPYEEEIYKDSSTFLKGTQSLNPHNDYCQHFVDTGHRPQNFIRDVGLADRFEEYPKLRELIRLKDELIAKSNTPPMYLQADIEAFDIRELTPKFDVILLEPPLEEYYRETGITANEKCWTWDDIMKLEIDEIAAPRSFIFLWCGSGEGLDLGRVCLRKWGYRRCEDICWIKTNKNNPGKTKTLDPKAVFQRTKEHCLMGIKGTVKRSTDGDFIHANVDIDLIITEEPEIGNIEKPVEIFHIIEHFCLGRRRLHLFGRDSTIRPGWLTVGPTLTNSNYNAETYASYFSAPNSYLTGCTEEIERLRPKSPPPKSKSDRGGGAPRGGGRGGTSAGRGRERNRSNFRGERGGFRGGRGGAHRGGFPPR
Target sequence in this assay (Q86U44 whole entry): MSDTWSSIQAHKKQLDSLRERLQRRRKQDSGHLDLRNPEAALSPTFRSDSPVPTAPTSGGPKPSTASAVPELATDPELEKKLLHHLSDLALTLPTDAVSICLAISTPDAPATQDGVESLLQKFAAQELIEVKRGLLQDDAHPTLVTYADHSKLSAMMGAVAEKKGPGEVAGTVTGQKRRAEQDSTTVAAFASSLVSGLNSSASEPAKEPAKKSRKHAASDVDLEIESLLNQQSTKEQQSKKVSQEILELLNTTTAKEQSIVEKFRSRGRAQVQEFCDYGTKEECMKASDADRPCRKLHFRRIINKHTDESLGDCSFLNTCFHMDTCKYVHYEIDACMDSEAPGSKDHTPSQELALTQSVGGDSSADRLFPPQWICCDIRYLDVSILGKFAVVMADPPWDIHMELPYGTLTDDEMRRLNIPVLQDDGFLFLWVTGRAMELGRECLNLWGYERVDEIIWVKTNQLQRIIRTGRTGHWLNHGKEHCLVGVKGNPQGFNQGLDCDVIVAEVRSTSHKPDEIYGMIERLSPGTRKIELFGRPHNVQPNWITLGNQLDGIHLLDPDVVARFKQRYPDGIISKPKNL
For data set [2] the following is noted: Rat liver microsomes.
The target of data set [3] is T1, METTL3-METTL14. As to the kind of experiment: biochemical.
Target sequence in this assay (Q9HCE5 whole entry): as the sequence (Q9HCE5 whole entry) above
Target sequence in this assay (Q86U44 whole entry): as the sequence (Q86U44 whole entry) above
For data set [4], the target named is T1, METTL3-METTL14. As to the kind of experiment: Protein thermal shift assay, METTL3/METTL14. Particulars: read-out: ΔTm of METTL3/METTL14.
Target sequence in this assay (Q86U44 whole entry): as above
Target sequence in this assay (Q9HCE5 whole entry partner): as the sequence (Q9HCE5 whole entry) above
The test system of data set [5] is m^6A/A ratio in polyadenylated RNA, MOLM-13 cells. As to the kind of experiment: m6A/A ratio in polyadenylated RNA by UPLC-MS/MS, MOLM-13. The settings on record: Homo sapiens, MOLM-13, 16 h, read-out: EC50 reduction of m^6A/A in polyadenylated RNA.
[6] abbreviates: read-out: IC50 for N6-adenosine-methyltransferase, exemplary PROTAC compounds, Table 9, HTRF, triplicates.

Where two headings read alike, the source gives them in different places.

Take `CNc1cc(N2CCCC(O)(CNC(=O)c3ccc(CN4CCC(C)(C)CC4)cc3)C2)ncn1` (stereo not shown) [Compound 1]: on METTL3-METTL14 [1], the “LLE (lipophilic ligand efficiency, pIC50-logP)” value is recorded as 2.5 and the “LE (ligand efficiency)” value is listed as 0.21 kcal.mol^−1 heavy atom count^−1.

By IC50 is commonly meant the concentration needed to halve the response being measured. On to `CNc1cc(N2CCC(O)(CNc3ccc(CN4CCC(C)(C)CC4)cc3)CC2)ncn1` [Compound 2], for which the half-inhibitory concentration (IC50) on METTL3-METTL14 [1] (TR-FRET assay) came to 5000 nM. Moreover, on METTL3-METTL14 [1], the “LLE (lipophilic ligand efficiency, pIC50-logP)” value was 2.5.

As to `CNc1cc(N2CCC(O)(CNc3ccc(CN4CCC(C)(C)CC4)cn3)CC2)ncn1` [Compound 3], the midpoint of inhibition at METTL3-METTL14 [1] (TR-FRET assay), the IC50, lay at 4600 nM. Also, at METTL3-METTL14 [1], the “LLE (lipophilic ligand efficiency, pIC50-logP)” value is on record as 3.2.

Turning to `CNc1cc(N2CCC(O)(CNc3ccc(CN4CCC(C)(C)CC4)nc3)CC2)ncn1` [Compound 4], on METTL3-METTL14 [1] (TR-FRET assay), it took 5800 nM to reach half-maximal inhibition (IC50). On METTL3-METTL14 [1], the “LLE (lipophilic ligand efficiency, pIC50-logP)” value was 3.4.

`CC1(C)CCN(Cc2ccc(NCC3(O)CCN(c4cc(NCc5ccccc5)ncn4)CC3)cn2)CC1` [Compound 5] registered an IC50 on METTL3-METTL14 [1] (TR-FRET assay) of 790 nM.

`CC1(C)CCN(Cc2ccc(C(=O)NC3CCN(c4cc(NCc5ccccc5)ncn4)CC3)cn2)CC1` [Compound 6]: on METTL3-METTL14 [1], the “LLE (lipophilic ligand efficiency, pIC50-logP)” value is recorded as 1.7 and the “LE (ligand efficiency)” value was 0.20 kcal.mol^−1 heavy atom count^−1.

For the molecule `CC1(C)CCN(Cc2ccc(N3CC(=O)NC4(CCN(c5cc(NCCCNC(=O)CCOCCOCCNc6cccc7c6C(=O)N(C6CCC(=O)NC6=O)C7=O)ncn5)CC4)C3)cc2)CC1` (stereo not shown) [Compound 8-4], the IC50 at METTL3-METTL14 [1] (setting [6]) turned out to be 2470 nM.

Regarding `CC1(C)CCN(Cc2ccc(N3CC(=O)NC4(CCN(c5cc(NCCCNC(=O)CCOCCOCCOCCNc6cccc7c6C(=O)N(C6CCC(=O)NC6=O)C7=O)ncn5)CC4)C3)cc2)CC1` (stereo not shown) [Compound 9-5], at METTL3-METTL14 [1] (setting [6]), the IC50 worked out at 1060 nM.

Regarding `CNc1cc(N2CCC3(CC2)CN(c2ccc(CN4CCC(C)(C)CC4)cc2)CC(=O)N3)ncn1` [Compound 10, 4-(4-((4,4-dimethylpiperidin-1-yl)methyl)phenyl)-9-(6-(methylamino)pyrimidin-4-yl)-1,4,9-triazaspiro[5.5]undecan-2-one], the IC50 at METTL3-METTL14 [1] (TR-FRET assay) worked out at 89 nM.

As for `CC1(C)CCN(Cc2ccc(N3CC(=O)NC4(CCN(c5cc(NCCCNC(=O)CCOCCOCCOCCOCCNc6cccc7c6C(=O)N(C6CCC(=O)NC6=O)C7=O)ncn5)CC4)C3)cc2)CC1` (stereo not shown) [Compound 10-6], the IC50 at METTL3-METTL14 [1] (setting [6]) was determined as 590 nM.

As for `CNc1cc(N2CC3(CN(c4ccc(CN5CCC(C)(C)CC5)cc4)CC(=O)N3)C2)ncn1` [Compound 11, 8-(4-((4,4-Dimethylpiperidin-1-yl)methyl)phenyl)-2-(6-(methylamino)pyrimidin-4-yl)-2,5,8-triazaspiro[3.5]nonan-6-one], on METTL3-METTL14 [1], the “LLE (lipophilic ligand efficiency, pIC50-logP)” value was 4.5 and the “LE (ligand efficiency)” value is recorded as 0.26 kcal.mol^−1 heavy atom count^−1. The “RLM t1/2” value in data set [2] is 70 min.

Consider `CC1(C)CCN(Cc2ccc(N3CC(=O)NC4(CCN(c5cc(NCCCNC(=O)CCOCCOCCOCCOCCOCCNc6cccc7c6C(=O)N(C6CCC(=O)NC6=O)C7=O)ncn5)CC4)C3)cc2)CC1` (stereo not shown) [Compound 11-7], for which, on METTL3-METTL14 [1] (setting [6]), the IC50 worked out at 640 nM.

On to `CNc1cc(N2CCC3(CC2)CN(c2ccc(CN4CCC(C)(C)CC4)cc2)C(=O)N3)ncn1` [Compound 12], for which, on METTL3-METTL14 [1], the “LLE (lipophilic ligand efficiency, pIC50-logP)” value is 2.6 and the “LE (ligand efficiency)” value is recorded as 0.23 kcal.mol^−1 heavy atom count^−1.

`CC1(C)CCN(Cc2ccc(N3CC(=O)NC4(CCN(c5cc(NCCCNC(=O)CCn6cc(CNc7cccc8c7C(=O)N(C7CCC(=O)NC7=O)C8=O)nn6)ncn5)CC4)C3)cc2)CC1` (stereo not shown) [Compound 13-11] returned an IC50 on METTL3-METTL14 [3] of 1800 nM.

As for `CNc1cc(N2CCC3(CC2)CN(c2ccc(CN4CCC(C)(C)CC4)cc2)CC(=O)N3C)ncn1` [Compound 13], half-maximal inhibition at METTL3-METTL14 [1] (TR-FRET assay) (IC50) required 1500 nM. At METTL3-METTL14 [1], the “LLE (lipophilic ligand efficiency, pIC50-logP)” value is reported as 3.0 and the “LE (ligand efficiency)” value is 0.22 kcal.mol^−1 heavy atom count^−1.

Turning to `CC1(C)CCN(Cc2ccc(N3CC(=O)NC4(CCN(c5cc(NCCCNC(=O)CCCCCCCCNc6cccc7c6CN(C6CCC(=O)NC6=O)C7=O)ncn5)CC4)C3)cc2)CC1` (stereo not shown) [Compound 14-12], at METTL3-METTL14 [1] (setting [6]), the IC50 turned out to be 260 nM.

Consider `CN(C)c1cc(N2CCC3(CC2)CN(c2ccc(CN4CCC(C)(C)CC4)cc2)CC(=O)N3)ncn1` [Compound 14], for which, at METTL3-METTL14 [1], the “LLE (lipophilic ligand efficiency, pIC50-logP)” value is recorded as 3.2 and the “LE (ligand efficiency)” value is recorded as 0.23 kcal.mol^−1 heavy atom count^−1.

Consider `CC(C)Nc1cc(N2CCC3(CC2)CN(c2ccc(CN4CCC(C)(C)CC4)cc2)CC(=O)N3)ncn1` [Compound 15, 4-(4-((4,4-Dimethylpiperidin-1-yl)methyl)phenyl)-9-(6-(isopropylamino)pyrimidin-4-yl)-1,4,9-triazaspiro[5.5]undecan-2-one], for which, at METTL3-METTL14 [1], the “LLE (lipophilic ligand efficiency, pIC50-logP)” value is reported as 3.2 and the “LE (ligand efficiency)” value is on record as 0.24 kcal.mol^−1 heavy atom count^−1.

`CC1(C)CCN(Cc2ccc(N3CC(=O)NC4(CCN(c5cc(NCCCNC(=O)CNc6cccc7c6CN(C6CCC(=O)NC6=O)C7=O)ncn5)CC4)C3)cc2)CC1` (stereo not shown) [Compound 15-13] returned a concentration for half-maximal inhibition (IC50) against METTL3-METTL14 [3] of 520 nM.

Regarding `CC1(C)CCN(Cc2ccc(N3CC(=O)NC4(CCN(c5ccnc6[nH]ccc56)CC4)C3)cc2)CC1` [Compound 18], at METTL3-METTL14 [1], the “LLE (lipophilic ligand efficiency, pIC50-logP)” value was 2.3 and the “LE (ligand efficiency)” value is reported as 0.20 kcal.mol^−1 heavy atom count^−1.

In the case of `CC1(C)CCN(Cc2ccc(N3CC(=O)NC4(CCN(c5nc(Cl)nc6[nH]ccc56)CC4)C3)cc2)CC1` [Compound 19, 9-(2-Chloro-7H-pyrrolo[2,3-d]pyrimidin-4-yl)-4-(4-((4,4-dimethylpiperidin-1-yl)methyl)phenyl)-1,4,9-triazaspiro[5.5]undecan-2-one], at METTL3-METTL14 [1], the “LLE (lipophilic ligand efficiency, pIC50-logP)” value was 3.9. In addition, the “RLM t1/2” value in data set [2] is 32 min.

With `CNc1cc(N2CCC3(CC2)CN(c2cc(F)c(CN4CCC(C)(C)CC4)cc2F)CC(=O)N3)ncn1` [Compound 22, 4-(4-((4,4-Dimethylpiperidin-1-yl)methyl)-2,5-difluorophenyl)-9-(6-(methylamino)pyrimidin-4-yl)-1,4,9-triazaspiro[5.5]undecan-2-one], the ΔTm at 100 µM on METTL3-METTL14 [4] came to 4.7 °C. The EC50 in data set [5] was 700 nM.

In the case of `CC1(C)CCN(Cc2cc(F)c(N3CC(=O)NC4(CCN(c5cc(NCC6CCN(C(=O)CCCCCCCCN7CCN(c8cccc9c8C(=O)N(C8CCC(=O)NC8=O)C9=O)CC7)CC6)ncn5)CC4)C3)cc2F)CC1` (stereo not shown) [Compound 49-1], at METTL3-METTL14 [3], the IC50 worked out at 5 nM.

Regarding `CC1(C)CCN(Cc2cc(F)c(N3CC(=O)NC4(CCN(c5cc(NCc6cccc(CNC(=O)CCCCCCCCNc7cccc8c7CN(C7CCC(=O)NC7=O)C8=O)c6)ncn5)CC4)C3)cc2F)CC1` (stereo not shown) [Compound 50-1], on METTL3-METTL14 [1] (setting [6]), the concentration for half-maximal inhibition (IC50) was 67 nM.

On to `CC1(C)CCN(Cc2cc(F)c(N3CC(=O)NC4(CCN(c5cc(NCc6cccc(CNC(=O)CCCCCCCCCCNc7cccc8c7CN(C7CCC(=O)NC7=O)C8=O)c6)ncn5)CC4)C3)cc2F)CC1` (stereo not shown) [Compound 51-1], for which, on METTL3-METTL14 [1] (setting [6]), the 50% inhibitory concentration (IC50) was 160 nM.

For `CC1(C)CCN(Cc2cc(F)c(N3CC(=O)NC4(CCN(c5cc(NCc6cccc(CNC(=O)CCCCCCCCn7cc(CNc8cccc9c8C(=O)N(C8CCC(=O)NC8=O)C9=O)nn7)c6)ncn5)CC4)C3)cc2F)CC1` (stereo not shown) [Compound 52-1], the IC50 on METTL3-METTL14 [1] (setting [6]) worked out at 88 nM.

`CC1(C)CCN(Cc2cc(F)c(N3CC(=O)NC4(CCN(c5cc(NCc6cccc(CNC(=O)CCn7cc(CNc8cccc9c8C(=O)N(C8CCC(=O)NC8=O)C9=O)nn7)c6)ncn5)CC4)C3)cc2F)CC1` (stereo not shown) [Compound 53-1] returned a half-inhibitory concentration (IC50) on METTL3-METTL14 [3] of 200 nM.

In the case of `CC1(C)CCN(Cc2ccc(N3CC(=O)NC4(CCN(c5cc(NCCCNC(=O)CCCCCCCCCCCCCCNc6cccc7c6CN(C6CCC(=O)NC6=O)C7=O)ncn5)CC4)C3)cc2)CC1` (stereo not shown) [Compound 54-1], the 50% inhibitory concentration (IC50) at METTL3-METTL14 [1] (setting [6]) stood at 1220 nM.

For `CC1(C)CCN(Cc2cc(F)c(N3CC(=O)NC4(CCN(c5cc(NCCCNC(=O)CCCCCCCCNc6cccc7c6CN(C6CCC(=O)NC6=O)C7=O)ncn5)CC4)C3)cc2F)CC1` (stereo not shown) [Compound 55-1], the half-inhibitory concentration (IC50) at METTL3-METTL14 [1] (setting [6]) amounted to 66 nM.

Turning to `CC1(C)CCN(Cc2cc(F)c(N3CC(=O)NC4(CCN(c5cc(NCCCNC(=O)CCCCCCCCCCNc6cccc7c6CN(C6CCC(=O)NC6=O)C7=O)ncn5)CC4)C3)cc2F)CC1` (stereo not shown) [Compound 56-1], on METTL3-METTL14 [1] (setting [6]), the half-maximal inhibitory concentration (IC50) is 300 nM.

Consider `CC1(C)CCN(Cc2ccc(N3CC(=O)NC4(CCN(c5cc(NCCCNC(=O)CCCCCCCCn6cc(CNc7cccc8c7C(=O)N(C7CCC(=O)NC7=O)C8=O)nn6)ncn5)CC4)C3)cc2)CC1` (stereo not shown) [Compound 57-1], for which the IC50 against METTL3-METTL14 [3] worked out at 480 nM.

Consider `CC1(C)CCN(Cc2cc(F)c(N3CC(=O)NC4(CCN(c5cc(NCCCNC(=O)CCCCCCCCn6cc(CNc7cccc8c7C(=O)N(C7CCC(=O)NC7=O)C8=O)nn6)ncn5)CC4)C3)cc2F)CC1` (stereo not shown) [Compound 58-1], for which the IC50 at METTL3-METTL14 [1] (setting [6]) came out at 67 nM.

`CC1(C)CCN(Cc2cc(F)c(N3CC(=O)NC4(CCN(c5cc(NCCCNC(=O)CCCCCCCCCCn6cc(CNc7cccc8c7C(=O)N(C7CCC(=O)NC7=O)C8=O)nn6)ncn5)CC4)C3)cc2F)CC1` (stereo not shown) [Compound 59-1]: on METTL3-METTL14 [1] (setting [6]), the IC50 amounted to 220 nM.

`Nc1ncnc2c1ncn2[C@@H]1O[C@H](CSCC[C@H](N)C(=O)O)[C@@H](O)[C@H]1O` [SAH, S-adenosyl-L-homocysteine, reference compound]: the ΔTm at 100 µM at METTL3-METTL14 [4] amounted to 2.8 °C.
